Values belong to the compound of their own block, whether it stands above or below them. Where a SMILES comes first, the peptide text is derived from it. Bridges are numbered along the chain shown (N, C = ends). Where no end group is shown, it is not given here. [ ]: non-standard residue; d: D form. The star is where a group is joined. hArg = N=C(N)NCCCC[C@H](N)C(=O)O; Myristoyl = CCCCCCCCCCCCCC(=O)*; Mpa = O=C(O)CCS
Assays:
C57BL/6 mice [1] = test: Arterial perforation bleeding analysis (carotid artery perforation model of surgical bleeding); format: in vivo, mouse; conditions: M3mP6 HLPN 10 μmol/kg; cangrelor loading dose 30 μg/kg
Procedure: The right carotid artery was isolated as previously described (34, 37) and punctured with a 27½G needle in the middle of carotid artery. The perforating wound was immediately covered with a 4×4 mm hemostatic pad (CERTI-GAUZE™, Kansas City, MO), which serve to absorb extravascular blood and also help stop bleeding similarly to that during vascular procedures. The pad was removed after 15 minutes regardless whether bleeding continued or not. The volume of blood absorbed on the pad during the 15-minute period was quantified by estimating the amount of hemoglobin. To do so, adsorbed blood on the pad was dissolved into 30 mL double distilled water. To 1 mL of dissolved blood, 1 mL of the 2× Drabkin's Solution was added. After fully mixing and incubating for 20 minutes at room temperature, the absorbance of the samples was analyzed at 540 nm wave length with a spectrophotometer. Known volumes of blood were similarly analyzed to establish a standard curve for the calculation of blood volume on the pad. Data were analyzed by Mann-Whitney test for statistical significance.

C57BL/6 mice [2] = test: FeCl3-induced mouse carotid artery thrombosis model; format: in vivo; conditions: for anti-thrombotic effect compared with M3mP6 HLPN (10 μmol/kg), pre-injury dosing: clopidogrel 4 mg/kg, ticagrelor 3 mg/kg, aspirin 4.3 mg/kg oral, cangrelor 30 μg/kg retro-orbital, MB2mP6; for formation of stable occlusive thrombus / occlusion time vs normal control: 7.5% FeCl3, M3mP6 HLPN 5 or 10 μmol/kg retro-orbital 15 min before, aspirin 4.3 mg/kg oral 2 h, clopidogrel 4 mg/kg oral 2 h, MB2mP6 15 min before
Procedure: The right carotid artery was isolated (34, 37). A MA-0.5SB nanoprobe (Transonic Systems, Ithaca, NY) was hooked to the carotid artery to monitor blood flow with a TS420 flowmeter (Transonic Systems) as previously described (38). After stabilization, carotid arterial thrombosis was induced with 7.5% ferric chloride (FeCl3) (Sigma Aldrich, St. Louis, MO), a filter paper disc (2 mm diameter) soaked with 1.2 μL of 7.5% FeCl3 was placed on top of the artery for 3 minutes, and then removed. M3mP6 HLPN, HLPN of scrambled control peptide, HLPN of a second control peptide carrying AAA mutation or physiological saline solution were injected 15 minutes before procedure retro-orbitally. […] To study the effect of post-injury drug injection on thrombosis development, the filter paper disc soaked with 1.2 μl 3.75% FeCl3 were placed on artery for 2 minutes, and drugs were injected retro-orbitally 3 minutes after removing the filter paper. Blood flow was monitored continuously until 5 minutes after occlusion or for 30 minutes if no occlusion occurred. Time to occlusion was defined as the time between the removal of the filter paper and stable occlusion (no blood flow for 2 minutes).
Eight- to 10-week-old C57BL/6 mice (20-25 g body weight) were anesthetized by isoflurane inhalation. The right carotid artery was isolated. A MA-0.5SB nanoprobe (Transonic Systems, Ithaca, NY) was hooked to the carotid artery to monitor blood flow with a TS420 flowmeter (Transonic Systems) as previously described (29). After stabilization, a filter paper disc (2 mm diameter) soaked with 1.2 μL of 7.5% FeCl3 (Sigma Aldrich, St. Louis, MO) was placed on top of the carotid artery for 3 minutes to induce thrombosis and then removed. MB2mP6 or scrambled control peptide were injected 15 minutes before the procedure retro-orbitally. Blood flow was monitored continuously until 5 minutes after occlusion or for 15 minutes if no occlusion occurred. Time to occlusion was defined as the time between the removal of the filter paper and stable occlusion (no blood flow for 5 minutes).

C57BL/6 mice [3] = test: Tail bleeding time; conditions: cangrelor 30 μg/kg; for tail bleeding, drugs injected after initiation of thrombosis: M3mP6 10 μmol/kg; for tail bleeding time vs normal control: M3mP6 HLPN 10 μmol/kg, aspirin 4.3 mg/kg, clopidogrel 4 mg/kg, ticagrelor 3 mg/kg, MB2mP6
C57BL/6 mice [4] = test: Laser-induced mouse cremaster arteriolar thrombosis and intravital microscopy; format: in vivo; conditions: M3mP6 HLPN 10 μmol/kg, cangrelor 30 μg/kg
Procedure: Laser-induced thrombosis and intravital microscopy are performed as previously described using male C57BL/6 mice (6-8 weeks old) anesthetized by intraperitoneal injection of ketamine and xylazine (36). Platelet thrombi were indicated by infusion of DyLight 649-labeled anti-mouse […], Germany). Fibrin deposition was tracked by Alexa Fluor (AF) 488-labeled monoclonal anti-fibrin antibody (clone 59D8) as previously described (25). Suspensions of M3mP6 HLPN (10 μmol/kg) or a control peptide (Myr-ERAFEE (SEQ ID NO: 47)) HLPN in 0.15 M NaCl or cangrelor were injected 15 min or immediately prior to induction of injury. Fluorescence and bright-field images were recorded by an Olympus BX61W microscope with a 603/1.0 NA water immersion objective and a high-speed camera (5 frame/second) through an intensifier at 27-30 injury sites in 7 mice per group. The movies shown are compressed to 100 frame/second.

human platelets [5] = test: Human platelet aggregation (lumiaggregometer); format: cell-based; conditions: washed human platelets pretreated with peptide
Procedure: (§1) For human subjects, Institutional Review Board approval was obtained from the University of Illinois at Chicago, and informed consent from volunteers was obtained in accordance with the Declaration of Helsinki. Platelets were prepared as previously described (33). Platelet aggregation and adenosine triphosphate (ATP) secretion were measured simultaneously in a lumiaggregometer (Chronolog) at 37° C. with stirring (1000 rpm), as previously described (34).
(§2) To prepare platelet-rich plasma (PRP), whole blood was anticoagulated with 3.8% trisodium citrate. To prepare human platelets, one-seventh volume of ACD was used as anticoagulant. Platelets were washed twice and resuspended in modified Tyrode's buffer as previously described (27). Platelet aggregation and adenosine triphosphate (ATP) secretion were measured simultaneously in a lumiaggregometer (Chronolog) at 37° C. with stirring (1000 rpm) as previously described (28).

[6] = Peptide loading, peptide concentration and dissolution of the nanoparticle/micelle formulation; format: physicochemical; conditions: HLPN, or lipid micellar suspension for mP6
Text: The peptide myr-FEEERL(SEQ ID NO: 25) was modified from the original […] cytoplasmic domain sequence to make it more suitable to form peptide-based nanoparticle, and was formulated to form lipid-stabilized high-loading peptide nanoparticles together with PEG2000-DSPE (Avanti Polar Lipids Inc. Alabaster, AL), L-α-phosphatidylcholine (egg PC, Type XI-E, Sigma-Aldrich, St. Louis, MO) with a peptide to PEG-DSPE to PC molar ratio of 36.8:51.7:11.5 or 50:40:10 (further improved formulation with identical in vivo effect) using thin-film rehydration (21, 31). The size distribution of nanoparticles were determined using dynamic light scattering (DLS) (Malvern, Zetasizer Nano ZS90, Worcestershire, U.K.) as previously described (32). This method uses light scattering to monitor the Brownian motion of the particles. Particle size is presented as volume weighted diameter distribution.

[7] = reference (21); cited from earlier work
human platelets [8] = test: Human platelet granule (ATP) secretion (lumiaggregometer); format: cell-based; conditions: for integrin-dependent second wave of ATP/granule secretion induced by U46619 / integrin-independent first wave of ATP/granule secretion induced by U46619: human platelets (Integrilin: mouse and human platelets); for ATP secretion induced by thrombin: washed human platelets pretreated with peptide
Procedure: as §1, §2

[9] = Pharmacokinetics in rats (5-day infusion); set-up: species or system rat; conditions: Sprague-Dawley, in vivo
Procedure: (§3) Toxicological responses to bolus and continuous intravenous infusion of M3mP6 HLPN were performed using jugular vein catheterized (JVC) Sprague-Dawley (SD) rats (6-8 weeks old and […]), which were quarantined for at least 3 day after arrival. Four SD rats (n=2 per sex) was given an IV bolus dose of M3mP6 (100 mg/kg, dose volume 10 mL/kg) followed by IV infusion dose of M3mP6 for 24 hr (25 mg/kg/hr for a total dose of 600 mg/kg/day). […] A pilot 7-day continuous infusion study in rats was performed similarly with lower drug concentrations. The parameters observed include mortality, clinical signs, body weights, hematology, clinical chemistry and organ weights. For pharmacokinetic studies, plasma samples for drug analysis were obtained from blood samples collected in satellite 6 males and 6 females (3 rat/sex per time-point) in the dose Groups 3 and 4 (Phase 2) at the following time-point on Day 1 after the bolus dose and infusion were started: 5, 10 and 30 minutes, and 1, 2, 6 and 24 hours. Additional blood samples were collected prior to the end of 5-day infusion, immediately after stopping the infusion, and at 30 minutes, and 1, 4, 6, 24 and 48 hours after the end of the infusion.

Pharmacokinetics in mice = format: in vivo, mouse; conditions: intravenous injection of 5 mg/kg (5 μmol/kg)
Procedure: For pharmacokinetic studies, CD-1 mice were intravenously injected with 5 mg/kg (5 μmol/kg) M3mP6 (potential therapeutic dose). At the following time points: 0 (pre-dose) min, 5 min, 10 min, 30 min, 1, 2, 4, 6, and 24 hours, 3 drug-treated mice were sacrificed, and their blood drawn via vena cava into K2EDTA tubes. Whole blood and plasma were analyzed for M3mP6 concentrations using Agilent 1290 Infinity LC and 6430 triple quadrupole mass spectrometer and MassHunter software.

[10] = Acute maximal tolerated dose (MTD) in mice; conditions: mouse, in vivo, 60 mg/kg; CD-1 mice, IV tail vein, single injection, observed 8 days; read-out: maximal tolerated dose (MTD) = maximal feasible dose
Sprague-Dawley (SD) rats = test: Toxicity of bolus and continuous intravenous infusion in rats; format: in vivo; conditions: IV bolus 100 mg/kg followed by IV infusion 25 mg/kg/hr for 24 hr
Procedure: as §3

bleeding from perforated artery vs control mice (C57BL/6 mice [1]): caused excessive bleeding
tail bleeding, drugs injected after initiation of thrombosis (C57BL/6 mice [3]): caused significant bleeding
tail bleeding time vs normal control (C57BL/6 mice [3]): dramatically increased
Compound: CSCCNc1nc(SCCC(F)(F)F)nc2c1ncn2[C@@H]1O[C@H](COP(=O)(O)OP(=O)(O)C(Cl)(Cl)P(=O)(O)O)[C@@H](O)[C@H]1O [cangrelor]
anti-thrombotic effect compared with M3mP6 (10 μmol/kg), drugs injected after initiation of thrombosis (C57BL/6 mice [2]; 3.75% FeCl3, cangrelor 30 μg/kg): no statistical difference
anti-thrombotic effect compared with M3mP6 HLPN (10 μmol/kg), pre-injury dosing (C57BL/6 mice [2]): moderately but significantly better
intravascular fibrin clot formation at the site of vascular injury (C57BL/6 mice [4]): moderate effect
platelet thrombus formation (C57BL/6 mice [4]; preinjected): completely inhibiting

Compound: myr-FEEERA (Myristoyl-FEEERA) [mP6]
thrombin-induced platelet aggregation (human platelets [5]): potently inhibited
peptide concentration in injectable/micellar suspension [6]: 1 mM
peptide loading, of total molar content (mol/mol) [6]: < 4%
maximal concentration of peptide in lipid micellar formulation [7]: < 1 mM
maximal peptide content of lipid micellar formulation (mol/mol) [7]: ≤ 4%
integrin-dependent second wave of ATP/granule secretion induced by U46619 (human platelets [8]): diminished
integrin-independent first wave of ATP/granule secretion induced by U46619 (human platelets [8]): diminished
ATP secretion induced by thrombin (human platelets [8]): significantly inhibited

tail bleeding time vs normal control (C57BL/6 mice [3]): dramatically prolonged
Compound: CCCSc1nc(N[C@@H]2C[C@H]2c2ccc(F)c(F)c2)c2nnn([C@@H]3C[C@H](OCCO)[C@@H](O)[C@H]3O)c2n1 [ticagrelor]

Compound: CC(=O)Oc1ccccc1C(=O)O [aspirin]
formation of stable occlusive thrombus / occlusion time vs normal control (C57BL/6 mice [2]): not significantly different
occlusive thrombus formation, high dose aspirin experiment (C57BL/6 mice [2]; aspirin 36 mg/kg i.p. 1 hour prior, M3mP6 HLPN 5 μmol/kg, combination): no significant effect

Compound: CCCCCCCCCCCCCC(=O)N[C@@H](Cc1ccccc1)C(=O)N[C@@H](CCC(=O)O)C(=O)N[C@@H](CCC(=O)O)C(=O)N[C@@H](CCC(=O)O)C(=O)N[C@@H](CCCNC(=N)N)C(=O)N[C@@H](CC(C)C)C(=O)O [M3mP6, Myr-FEEERL] (Myristoyl-FEEERL-OH; C-terminus assumed)
half-life ([9]; female, rat, iv): 3.7 h
half-life ([9]; male, rat 5-day infusion study, read-out: t1/2−λz (half-life after cessation of infusion), male (converted)): 3.1 h
half-life (Pharmacokinetics in mice; CD-1, mouse, in vivo, read-out: t1/2−λz (converted)): 2.46 h
maximum level in whole blood (Pharmacokinetics in mice): 33.36 ng/mL
tail bleeding, drugs injected after initiation of thrombosis (C57BL/6 mice [3]): but not M3mP6 caused significant bleeding
MTD at 8 days [10]: 60 mg/kg
toxicity during 3-4 days post dose (single dose MTD) (Sprague-Dawley (SD) rats): no toxicity was observed

Compound: COC(=O)[C@H](c1ccccc1Cl)N1CCc2sccc2C1 [clopidogrel]
formation of stable occlusive thrombus / occlusion time vs normal control (C57BL/6 mice [2]): moderate but significant delay
anti-thrombotic effect compared with M3mP6 HLPN (10 μmol/kg), pre-injury dosing (C57BL/6 mice [2]): significantly less effective

Compound: N=C(N)NCCCC[C@@H]1NC(=O)CCSSC[C@@H](C(N)=O)NC(=O)[C@@H]2CCCN2C(=O)[C@H](Cc2c[nH]c3ccccc23)NC(=O)[C@H](CC(=O)O)NC(=O)CNC1=O [Integrilin, reference compound] ([Mpa][hArg]GDWPC-NH2; disulfide 1-7)
integrin-dependent second wave of ATP/granule secretion induced by U46619 (human platelets [8]): diminished
integrin-independent first wave of ATP/granule secretion induced by U46619 (human platelets [8]): significantly enhanced
platelet granule secretion, low dose thrombin, integrin antagonist-treated platelets (human platelets [8]; wild type mouse or human platelets): enhanced

Compound: myr-EEERA (Myristoyl-EEERA) [mP5]
thrombin-induced platelet aggregation (human platelets [5]): partially inhibited
integrin-dependent second wave of ATP/granule secretion induced by U46619 (human platelets [8]): reduced
integrin-independent first wave of ATP/granule secretion induced by U46619 (human platelets [8]): significantly enhanced
ATP secretion induced by thrombin (human platelets [8]): enhanced

From patent US12714678B2, “Peptides and methods of treating sepsis, atherosclerosis, thrombosis, stroke, heart attack and inflammation” (THE BOARD OF TRUSTEES OF THE UNIVERSITY OF ILLINOIS, priority 2019, dated 2026)
